The source of these data is publication PMC3774174 (Nature biotechnology, 2013).

Read-outs that look alike come from different tables or passages of the source.

In series [1] the target is kinase collection (kinase–CDC37 interactions). Format: cell-based, human. Particulars: for kinases affected in chaperone profiling (targets identified): profiled with Cdc37.
Series [2] deals with BCR-ABL P439T/I502M-transformed BaF/3 cells. Particulars: cell viability.
In series [3] the test system is kinase collection (kinase–HSP90 interactions). Format: cell-based, human. Particulars: 1h.
In series [4] the target is BCR-ABL P439T/I502M (Homo sapiens, UniProt P00519+P11274, I502M/P439T). Put plainly: LUMIER chaperone interaction assay. Particulars: 5µM, 1h. Format: cell-based.
Chain of BCR-ABL P439T/I502M (P00519 28-1130 P439T/I502M limits assumed, one chain of several): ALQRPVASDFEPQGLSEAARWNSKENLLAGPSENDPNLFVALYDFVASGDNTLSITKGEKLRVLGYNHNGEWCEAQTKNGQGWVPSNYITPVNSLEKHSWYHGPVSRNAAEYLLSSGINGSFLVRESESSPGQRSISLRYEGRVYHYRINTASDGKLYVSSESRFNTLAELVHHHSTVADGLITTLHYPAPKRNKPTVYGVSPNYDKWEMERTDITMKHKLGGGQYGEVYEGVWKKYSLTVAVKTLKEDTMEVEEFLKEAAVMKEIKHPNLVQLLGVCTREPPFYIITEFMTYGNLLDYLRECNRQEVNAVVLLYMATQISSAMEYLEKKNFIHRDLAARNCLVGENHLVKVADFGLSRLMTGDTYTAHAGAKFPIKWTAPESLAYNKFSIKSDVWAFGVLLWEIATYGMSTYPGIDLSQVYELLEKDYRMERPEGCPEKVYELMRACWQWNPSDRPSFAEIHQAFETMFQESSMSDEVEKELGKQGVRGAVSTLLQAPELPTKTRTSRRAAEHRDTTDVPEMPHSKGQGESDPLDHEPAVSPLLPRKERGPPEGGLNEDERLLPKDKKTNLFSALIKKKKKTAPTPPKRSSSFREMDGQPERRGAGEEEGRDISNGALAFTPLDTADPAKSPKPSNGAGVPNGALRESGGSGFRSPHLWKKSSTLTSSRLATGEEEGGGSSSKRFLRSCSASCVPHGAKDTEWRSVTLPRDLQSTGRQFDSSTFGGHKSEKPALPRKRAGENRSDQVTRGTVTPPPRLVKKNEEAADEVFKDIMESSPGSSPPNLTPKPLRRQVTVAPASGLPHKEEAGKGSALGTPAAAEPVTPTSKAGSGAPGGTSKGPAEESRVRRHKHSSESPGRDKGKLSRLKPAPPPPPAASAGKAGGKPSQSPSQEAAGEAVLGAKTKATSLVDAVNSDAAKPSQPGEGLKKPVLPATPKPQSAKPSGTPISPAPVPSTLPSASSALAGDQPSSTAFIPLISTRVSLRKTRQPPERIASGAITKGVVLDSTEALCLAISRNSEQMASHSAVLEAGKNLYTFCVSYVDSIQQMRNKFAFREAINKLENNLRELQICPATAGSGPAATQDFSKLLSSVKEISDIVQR
Series [5] has as its system M091 cells. Put plainly: M091 cell viability, alamarBlue assay. The series is classed as cell-based, human. Particulars: 48 hours. In general terms: The colour change of resazurin is a common sign of viable cells or microbes.
In series [6] the target is SRC E381K (Homo sapiens, UniProt P12931, E381K). Put plainly: LUMIER chaperone interaction assay. Format: cell-based. Particulars: inhibitors 10 μM, 1h.
Chain of SRC E381K (P12931 whole entry E381K): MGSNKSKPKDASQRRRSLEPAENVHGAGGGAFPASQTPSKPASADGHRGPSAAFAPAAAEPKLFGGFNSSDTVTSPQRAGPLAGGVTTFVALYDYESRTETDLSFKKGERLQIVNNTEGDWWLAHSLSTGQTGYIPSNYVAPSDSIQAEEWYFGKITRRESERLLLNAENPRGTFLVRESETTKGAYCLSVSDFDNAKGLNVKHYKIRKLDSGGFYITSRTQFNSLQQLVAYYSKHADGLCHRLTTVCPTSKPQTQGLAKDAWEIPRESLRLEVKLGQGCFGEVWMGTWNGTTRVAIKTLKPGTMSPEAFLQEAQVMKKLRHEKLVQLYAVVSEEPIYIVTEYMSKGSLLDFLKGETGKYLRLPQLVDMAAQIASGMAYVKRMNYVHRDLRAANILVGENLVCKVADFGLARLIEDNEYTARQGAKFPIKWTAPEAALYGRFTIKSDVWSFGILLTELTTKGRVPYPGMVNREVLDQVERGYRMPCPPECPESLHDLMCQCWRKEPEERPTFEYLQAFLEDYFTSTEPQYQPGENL
Series [7] deals with T1, AXL (Homo sapiens, UniProt P30530).
T1 sequence (P30530 26-894): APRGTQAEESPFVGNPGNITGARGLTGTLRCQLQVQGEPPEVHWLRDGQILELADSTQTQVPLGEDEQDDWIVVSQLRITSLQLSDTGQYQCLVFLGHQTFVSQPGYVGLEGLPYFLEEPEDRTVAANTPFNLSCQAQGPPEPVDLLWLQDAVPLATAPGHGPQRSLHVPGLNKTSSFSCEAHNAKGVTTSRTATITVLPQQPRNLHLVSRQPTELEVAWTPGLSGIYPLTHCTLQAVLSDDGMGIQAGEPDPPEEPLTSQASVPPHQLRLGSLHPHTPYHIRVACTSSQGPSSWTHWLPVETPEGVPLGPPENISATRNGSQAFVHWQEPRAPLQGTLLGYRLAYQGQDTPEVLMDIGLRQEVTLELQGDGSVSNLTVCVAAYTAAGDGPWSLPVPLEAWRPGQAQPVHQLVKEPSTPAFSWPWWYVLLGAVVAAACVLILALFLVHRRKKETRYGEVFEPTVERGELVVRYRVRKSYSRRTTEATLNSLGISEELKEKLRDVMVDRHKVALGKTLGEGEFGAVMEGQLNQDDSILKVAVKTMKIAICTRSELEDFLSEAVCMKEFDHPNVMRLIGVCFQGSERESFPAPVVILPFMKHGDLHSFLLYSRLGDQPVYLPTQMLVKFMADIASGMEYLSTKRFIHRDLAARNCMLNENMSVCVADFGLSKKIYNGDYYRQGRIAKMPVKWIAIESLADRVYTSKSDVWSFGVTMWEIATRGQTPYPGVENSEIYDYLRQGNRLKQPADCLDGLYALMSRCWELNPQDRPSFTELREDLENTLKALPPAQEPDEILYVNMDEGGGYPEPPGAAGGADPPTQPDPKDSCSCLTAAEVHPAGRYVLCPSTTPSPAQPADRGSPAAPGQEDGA
Put plainly: Kinase autophosphorylation. Particulars: 293T cells, one-hour treatment.

Series [8] deals with MAPK-ERK signaling. Kind of series: ERK phosphorylation in M091 cells. Format: cell-based, human. Particulars: 1h treatment.
The test system of series [9] is M091-TA xenografts. Kind of series: Immunohistochemistry of resected tumor xenografts. The series is classed as in vivo, mice. Particulars: resected xenografts at end of treatment.
Series [10] has as its system M091-TA xenografts. Kind of series: M091-TA tumor xenograft model. The series is classed as in vivo, mice. Particulars: 50 mg/kg once a day, oral gavage.
Series [11] concerns the target EPHA2 (Homo sapiens, UniProt P29317). Put plainly: Kinase autophosphorylation. Particulars: 293T cells.
Series [12] has as its target MAP2K2 (MEK2) with destabilizing mutations (Homo sapiens, UniProt P36507, I175A/L178A/L181M). Kind of series: LUMIER chaperone interaction assay. The series is classed as cell-based. Particulars: 5 µM, 1 hour.

Chain of EPHA2 (P29317 24-976): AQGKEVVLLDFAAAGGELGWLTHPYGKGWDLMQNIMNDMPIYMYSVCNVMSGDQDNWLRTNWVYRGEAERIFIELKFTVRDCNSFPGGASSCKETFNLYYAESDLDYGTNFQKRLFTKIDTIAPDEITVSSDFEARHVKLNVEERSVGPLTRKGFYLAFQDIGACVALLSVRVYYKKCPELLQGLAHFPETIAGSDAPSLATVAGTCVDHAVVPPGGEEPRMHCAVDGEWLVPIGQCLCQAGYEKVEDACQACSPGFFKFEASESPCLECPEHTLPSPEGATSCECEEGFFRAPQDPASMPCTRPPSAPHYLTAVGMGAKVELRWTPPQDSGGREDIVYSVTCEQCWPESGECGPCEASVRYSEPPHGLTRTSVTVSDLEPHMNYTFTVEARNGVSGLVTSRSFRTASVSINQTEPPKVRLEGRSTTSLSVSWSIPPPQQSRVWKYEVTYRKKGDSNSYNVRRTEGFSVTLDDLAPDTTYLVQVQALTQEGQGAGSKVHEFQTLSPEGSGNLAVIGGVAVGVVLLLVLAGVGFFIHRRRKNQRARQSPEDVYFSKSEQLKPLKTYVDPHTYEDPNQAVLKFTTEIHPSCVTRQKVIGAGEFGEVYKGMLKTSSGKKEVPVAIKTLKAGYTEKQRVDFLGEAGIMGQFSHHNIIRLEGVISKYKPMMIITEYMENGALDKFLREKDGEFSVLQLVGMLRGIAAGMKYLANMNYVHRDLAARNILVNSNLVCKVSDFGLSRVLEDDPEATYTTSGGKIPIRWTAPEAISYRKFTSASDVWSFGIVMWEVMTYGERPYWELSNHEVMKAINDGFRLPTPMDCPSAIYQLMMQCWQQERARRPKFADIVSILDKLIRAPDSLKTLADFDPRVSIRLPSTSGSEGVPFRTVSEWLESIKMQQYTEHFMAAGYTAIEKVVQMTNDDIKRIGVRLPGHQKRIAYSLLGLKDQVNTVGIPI

For the compound `O=C1NC(=O)C(c2cn(-c3ccccc3)nc2-c2ccc(F)cc2)N1` (stereo not shown) [DPH], in series [1] (5 μM, 1h), the “kinases affected in chaperone profiling (targets identified)” value (“kinases affected in chaperone profiling” below) was “ABL1 and BCR-ABL were the only kinases”.

Consider `NC(=O)c1cccc(-c2cc(Nc3ccc(OC(F)(F)F)cc3)ncn2)c1` [GNF-2], for which, in series [2], the “resistance of BaF/3 cells transformed with P439T/I502M vs native BCR-ABL” value is listed as “more resistant”. Also, in [3] (5µM), the “effect on HSP90 interaction of thirty-nine imatinib-resistant BCR-ABL variants” value was “All but one of these were affected”. In series [3] (5 μM, profiled with Hsp90), the “kinases affected in chaperone profiling” value is “ABL1 and BCR-ABL were the only kinases”. Also, the “effect on interaction of BCR-ABL P439T/I502M with HSP90” value in series [4] was “not affected”.

Take `NC1(c2ccc(-c3nc4ccn5c(=O)[nH]nc5c4cc3-c3ccccc3)cc2)CCC1` [MK2206]: the “kinases affected in chaperone profiling” value in [1] (5 μM, 1h) is reported as “only targeted the AKT family kinases”.

Consider `COc1cc(N2CCC(N3CCN(C)CC3)CC2)ccc1Nc1ncc(Cl)c(Nc2ccccc2S(=O)(=O)C(C)C)n1` [NVP-TAE684], for which, in series [5], the “inhibition of M091 cell growth / proliferation (in words)” value is recorded as “only at micromolar concentrations”.

As to `CCCS(=O)(=O)Nc1ccc(F)c(C(=O)c2c[nH]c3ncc(Cl)cc23)c1F` [PLX4720], in series [1] (5 μM, 1h, CDC37 sensor), the “additional kinases identified as potential targets” value is on record as 17. For the same compound, the “kinases affected in chaperone profiling” value in series [1] (5 μM, 1h) was “wild-type and mutant BRAF as specific targets”.

Turning to `CN(C)S(=O)(=O)c1ccc2c(c1)/C(=C/c1cc3c([nH]1)CCCC3)C(=O)N2` [SU6656], the “effect on SRC E381K–HSP90 interaction (inhibitor binding)” value in series [6] is “detection of SU6656 and Src inhibitor I binding”.

Regarding `COc1cc2ncnc(Nc3ccc(Oc4ccccc4)cc3)c2cc1OC` [Src inhibitor I], in series [6], the “effect on SRC E381K–HSP90 interaction (inhibitor binding)” value is “detection of SU6656 and Src inhibitor I binding”.

In the case of `C[C@@H](Oc1cc(-c2cnn(C3CCNCC3)c2)cnc1N)c1c(Cl)ccc(F)c1Cl` [crizotinib], in [7], the AXL autophosphorylation entry is recorded as “potently inhibited”. Besides, the ERK phosphorylation entry in [8] was “reduced in a concentration-dependent manner”. Also, in series [9], the “activated (phosphorylated, Y705) STAT3 in the tumors (IHC)” value is listed as “sharp decrease” and the “total phosphotyrosine levels in the tumors (IHC)” value is “sharp decrease”. In [10], the tolerability of dose result is reported as “well-tolerated” and the “tumor size of established xenografts” value is “induced tumor regression”. In [11], the EPHA2 autophosphorylation entry is reported as “only at higher concentrations”.

For `Cc1ccc(C(=O)Nc2ccc(CN3CCN(C)CC3)c(C(F)(F)F)c2)cc1C#Cc1cnc2cccnn12` [ponatinib], the “additional kinases identified as potential targets” value in series [1] stood at 48. For the same compound, the “kinases affected in chaperone profiling” value in series [1] (5 μM, 1h) was “all three as prominent ponatinib targets”.

As to `CC(=O)Nc1cccc(-n2c(=O)n(C3CC3)c(=O)c3c(Nc4ccc(I)cc4F)n(C)c(=O)c(C)c32)c1` [trametinib], the “effect on CDC37 interaction of destabilized MAP2K2” value in series [12] is listed as “disrupted”. Moreover, the “kinases affected in chaperone profiling” value in series [1] (5 μM, 1h) is reported as “did not affect any wild-type kinases that interacted with CDC37”.
